Patent publication US10669272B2, “Substituted naphthyridinone compounds useful as T cell activators” (BRISTOL-MYERS SQUIBB COMPANY, priority 2018, dated 2020)
Read-outs that look alike come from different tables or passages of the source.

What was measured:
Human venous whole blood = test: Human whole blood IFN-γ assay; format: cell-based; conditions: human whole blood, read-out: INFg Whole Blood Normalized Agonist EC50;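 further: blood from healthy donors exposed to compound for 1 h before stimulation with anti-CD3 and anti-CD28 at 1 µg/mL each, IFN-γ quantified in supernatant by AlphaLISA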
Experimental: Human Whole Blood IFN-γ Assay
Human venous whole blood (22.5 μL per well), obtained from healthy donors, was pre-treated with compounds for one hour at 37° C. in a humidified 95% air/5% CO2 incubator. The blood was stimulated with 2.5 μL anti-human CD3 and anti-CD28 mAb at a final concentration of 1 μg/mL each for 24 hours at 37° C. IFN-γ in the supernatants was measured using AlphLISA kit (Cat # AL217).

human DGKζ = target: T1, human DGKζ (Homo sapiens, UniProt Q13574); test: DGKζ LIPGLO assay (extruded liposome substrate), in vitro DGK inhibition; format: biochemical; conditions: read-out: DGKz LIPGLO IC50
T1 construct: TVMV protease cleavage site (C); Hexa-His (C); made in house; host or cells: Sf9 insect cells (baculovirus, Bac-to-Bac)
T1 sequence (Q13574 with tags, fused parts or gaps isoform Q13574-4): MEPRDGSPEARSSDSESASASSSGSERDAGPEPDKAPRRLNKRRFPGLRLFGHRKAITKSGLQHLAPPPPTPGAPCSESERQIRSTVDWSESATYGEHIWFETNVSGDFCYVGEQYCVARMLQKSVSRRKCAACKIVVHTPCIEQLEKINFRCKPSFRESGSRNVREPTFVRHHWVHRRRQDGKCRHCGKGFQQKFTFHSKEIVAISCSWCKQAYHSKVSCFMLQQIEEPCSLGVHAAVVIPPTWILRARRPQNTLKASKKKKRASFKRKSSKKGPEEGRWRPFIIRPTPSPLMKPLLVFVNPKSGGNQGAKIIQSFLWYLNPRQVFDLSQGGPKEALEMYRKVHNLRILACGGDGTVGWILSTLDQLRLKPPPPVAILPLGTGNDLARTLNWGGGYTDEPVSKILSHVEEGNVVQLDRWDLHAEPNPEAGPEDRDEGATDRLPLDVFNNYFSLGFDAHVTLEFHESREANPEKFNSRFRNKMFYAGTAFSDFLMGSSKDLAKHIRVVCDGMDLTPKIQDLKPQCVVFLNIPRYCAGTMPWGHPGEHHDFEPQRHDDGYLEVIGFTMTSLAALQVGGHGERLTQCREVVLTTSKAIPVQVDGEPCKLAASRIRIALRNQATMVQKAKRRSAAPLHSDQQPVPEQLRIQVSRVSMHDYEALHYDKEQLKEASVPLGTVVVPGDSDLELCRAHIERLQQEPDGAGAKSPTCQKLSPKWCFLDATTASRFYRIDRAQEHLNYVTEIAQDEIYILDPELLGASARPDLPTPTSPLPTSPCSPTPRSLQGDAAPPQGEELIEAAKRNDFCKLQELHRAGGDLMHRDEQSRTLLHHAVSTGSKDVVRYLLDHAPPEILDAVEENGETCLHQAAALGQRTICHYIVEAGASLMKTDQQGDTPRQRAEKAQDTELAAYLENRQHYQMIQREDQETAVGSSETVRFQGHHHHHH

human DGKα = target: T2, human DGKα (Homo sapiens, UniProt P23743); test: DGKα LIPGLO assay (extruded liposome substrate), in vitro DGK inhibition; format: biochemical; conditions: read-out: DGKa LIPGLO IC50
T2 construct: TVMV protease cleavage site (C); Hexa-His (C); made in house; host or cells: Sf9 insect cells (baculovirus, Bac-to-Bac)
T2 sequence (P23743 with tags, fused parts or gaps): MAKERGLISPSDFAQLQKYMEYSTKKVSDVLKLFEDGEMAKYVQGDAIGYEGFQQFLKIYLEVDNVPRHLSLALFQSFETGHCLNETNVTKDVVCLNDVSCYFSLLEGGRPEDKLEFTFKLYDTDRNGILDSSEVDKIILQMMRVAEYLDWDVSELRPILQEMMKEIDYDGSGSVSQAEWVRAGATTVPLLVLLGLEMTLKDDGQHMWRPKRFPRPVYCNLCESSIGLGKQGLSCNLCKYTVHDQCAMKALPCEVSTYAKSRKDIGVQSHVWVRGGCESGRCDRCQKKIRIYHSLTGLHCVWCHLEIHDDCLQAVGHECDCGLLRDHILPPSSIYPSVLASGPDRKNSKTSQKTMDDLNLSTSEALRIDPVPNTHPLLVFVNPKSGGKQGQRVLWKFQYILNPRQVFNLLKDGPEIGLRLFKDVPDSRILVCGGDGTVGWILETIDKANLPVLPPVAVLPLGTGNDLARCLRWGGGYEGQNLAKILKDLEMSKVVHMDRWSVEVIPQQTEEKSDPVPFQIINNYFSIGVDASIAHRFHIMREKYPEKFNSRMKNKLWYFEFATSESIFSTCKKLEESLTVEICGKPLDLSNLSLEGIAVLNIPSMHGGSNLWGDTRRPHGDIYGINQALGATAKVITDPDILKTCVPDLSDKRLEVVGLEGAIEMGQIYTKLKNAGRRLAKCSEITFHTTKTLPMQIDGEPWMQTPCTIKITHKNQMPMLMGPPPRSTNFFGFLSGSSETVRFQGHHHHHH

[1] = normalized to 3 μM reference compound with anti-CD3 plus anti-CD28 as 100% activation
[2] = Homo sapiens, 24 h, anti-CD3 plus anti-CD28, 24 hours, 3 μM reference compound = 100% activation
[3] = anti-CD3 plus anti-CD28, 24 hours, 3 μM reference compound = 100% activation

| SMILES | EC50 (Human venous whole blood; [1]) | IC50 (human DGKζ; liposome (LIPGLO) assay) | IC50 (human DGKα; liposome (LIPGLO) assay) | EC50 (Human venous whole blood; Homo sapiens, 24 h, normalized to 3 μM reference compound with anti-CD3 plus anti-CD28 as 100% activation) | EC50 (Human venous whole blood; [2]) | IC50 (human DGKζ; DGKζ liposome (LIPGLO) assay) | IC50 (human DGKα; DGKα liposome (LIPGLO) assay) | EC50 (Human venous whole blood; [3]) |
| --- | --- | --- | --- | --- | --- | --- | --- | --- |
| C[C@@H]1CN(c2cc(=O)n(C)c3ccc(C#N)nc23)[C@@H](C)CN1C(c1ccc(F)cc1)c1cnn(C)c1 (single isomer, unassigned) [Example 702] | 4.7 µM | 2.9 µM | 1.3 µM |  |  |  |  |  |
| C[C@@H]1CN(c2cc(=O)n(C)c3ccc(C#N)nc23)[C@@H](C)CN1C(c1ccc(F)cc1)c1cnn(C)c1 (single isomer, unassigned) [Example 703] | 1.2 µM | 2.5 µM | 4 µM |  |  |  |  |  |
| C[C@@H]1CN(c2cc(=O)n(C)c3ccc(C#N)nc23)[C@@H](C)CN1C(c1ccc(F)cc1)c1ccon1 (single isomer, unassigned) [Example 706] | 2.9 µM | 12 µM | 1.3 µM |  |  |  |  |  |
| C[C@@H]1CN(c2cc(=O)n(C)c3ccc(C#N)nc23)[C@@H](C)CN1C(c1ccc(F)cc1)c1cocn1 (single isomer, unassigned) [Example 709] | 2.1 µM | 14 µM | 0.67 µM |  |  |  |  |  |
| C[C@@H]1CN(c2cc(=O)n(C)c3ccc(C#N)nc23)[C@@H](C)CN1C(c1ccc(F)cc1)c1nccs1 (single isomer, unassigned) [Example 711] |  | 3.6 µM | 0.069 µM | 1.7 µM |  |  |  |  |
| C[C@@H]1CN(c2cc(=O)n(C)c3ccc(C#N)nc23)[C@@H](C)CN1C(c1ccc(F)cc1)c1nccs1 (single isomer, unassigned) [Example 712] | 2.8 µM | 0.72 µM | 0.32 µM |  |  |  |  |  |
| C[C@@H]1CN(c2cc(=O)n(C)c3ccc(C#N)nc23)[C@@H](C)CN1C(c1ccc(F)cc1)c1cnsc1 (single isomer, unassigned) [Example 716] | 3.1 µM | 20 µM | 6.6 µM |  |  |  |  |  |
| C[C@@H]1CN(c2cc(=O)n(C)c3ccc(C#N)nc23)[C@@H](C)CN1C(c1ccc(F)cc1)c1csc(C2CC2)n1 (single isomer, unassigned) [Example 723] |  |  |  |  | 0.45 µM | 0.011 µM | 0.31 µM |  |
| C[C@@H]1CN(c2cc(=O)n(C)c3ccc(C#N)nc23)[C@@H](C)CN1C(c1ccc(F)cc1)c1csc(C2CC2)n1 (single isomer, unassigned) [Example 724] |  |  |  |  |  | 0.098 µM | 0.084 µM | 0.26 µM |
| C[C@@H]1CN(c2cc(=O)n(C)c3ccc(C#N)nc23)[C@@H](C)CN1C(c1ccc(F)cc1)c1cnn(C2CC2)c1 (single isomer, unassigned) [Example 725] |  |  |  |  | 1.5 µM | 0.49 µM | 0.55 µM |  |
| C[C@@H]1CN(c2cc(=O)n(C)c3ccc(C#N)nc23)[C@@H](C)CN1C(c1ccc(F)cc1)c1cnn(C2CC2)c1 (single isomer, unassigned) [Example 726] |  |  |  |  |  | 0.059 µM | 1.9 µM | 0.8 µM |
| C[C@@H]1CN(c2cc(=O)n(C)c3ccc(C#N)nc23)[C@@H](C)CN1C(c1ccc(F)cc1)c1cnc(C2CC2)s1 (single isomer, unassigned) [Example 727] |  |  |  |  | 1.3 µM | 1.6 µM | 37 µM |  |
| C[C@@H]1CN(c2cc(=O)n(C)c3ccc(C#N)nc23)[C@@H](C)CN1C(c1ccc(F)cc1)c1cnc(C2CC2)s1 (single isomer, unassigned) [Example 728] |  |  |  |  |  | 0.044 µM | 0.063 µM | 0.92 µM |
| C[C@@H]1CN(c2cc(=O)n(C)c3ccc(C#N)nc23)[C@@H](C)CN1C(c1ccc(F)cc1)c1cc(C2CC2)on1 (single isomer, unassigned) [Example 729] |  |  |  |  | 2.2 µM | 1.8 µM | 1.1 µM |  |
| C[C@@H]1CN(c2cc(=O)n(C)c3ccc(C#N)nc23)[C@@H](C)CN1C(c1ccc(F)cc1)c1cc(C2CC2)on1 (single isomer, unassigned) [Example 730] |  |  |  |  | 0.87 µM | 0.64 µM | 0.044 µM |  |
